Patent EP0555681A1, “Use of a combination of potassium channel activators and sulfhydryl containing compounds for the manufacture of a medicament for the treatment of ischemia and myocarolial infarct” (E.R. SQUIBB & SONS, INC., priority 1992, dated 1993)
Where two headings read alike, the source gives them in different places.

Assays:
Parameters in all cases: species or system Male Sprague-Dawley rats
[1] = tested on: isolated rat hearts; experiment: Time to contracture during global ischemia in isolated rat hearts, with isobolographic analysis of the combination; settings: read-out: EC₅₀ for percentage change in time to contracture
Protocol: (§1) anesthetized using 100 mg/kg sodium pentobarbital (i.p.). They were intubated and then treated with i.v. heparin (1000 U/kg). While mechanically ventilated, hearts were perfused in situ via retrograde cannulation of the aorta. The hearts were then excised and quickly moved to a Langendorff apparatus where they were perfused with Krebs-Henseleit bicarbonate buffer (112 mM sodium chloride, 25 mM sodium bicarbonate, 5 mM potassium chloride, 1.2 mM magnesium sulfate, 1 mM potassium diphosphate, 1.25 mM calcium chloride, 11.5 mM glucose and 2mM pyruvate bubbled with 95% oxygen - 5% carbon dioxide) at a constant perfusion pressure (75 mm Hg). A water-filled latex balloon, attached to a metal cannula, was inserted into the left ventricle and connected to a Statham pressure transducer for measurement of left ventricular pressure. The hearts were allowed to equilibrate for 15 minutes, at which time end diastolic pressure (EDP) was adjusted to 5 mm Hg and the balloon pressure was maintained for the duration of the experiment. Pre-ischemia or pre-drug function, heart rate and coronary flow (extracorporeal electromagnetic flow probe, Carolina Medical Electronics, King, N.C.) were then measured. Cardiac function was determined using double product of heart rate (HR) X left ventricular developed pressure (LVDP) divided by 1000. Cardiac temperature was maintained throughout the experiment by submerging the hearts in a heated chamber filled with 37°C buffer.
All hearts were retreated with vehicle or drug for 10 minutes before the onset of ischemia. All drugs were given only before ischemia. The hearts were subjected to 25 minutes of global ischemia and 30 minutes of reperfusion. At the end of the experiment, EDP and LDH release were measured and used as an index of severity of ischemia.
The effect of the combination of a potassium channel activator and a sulfhydryl containing compound was determined using a technique known as isobolographic analysis (R. J. Tallarida et al, "Minireview-Satistical Analysis of Drug-Drug and Site-Site Interactions with Isobolograms", Life Sciences, 45:947-961, 1989). This technique is commonly used to investigate the interaction between drugs.
Several specific concentration ratios (3:1, 12:1 and 30:1) of cromakalim to zofenopril respectively were tested and the effects of the combination determined. The concentration response curves for cromakalim and zofenopril were expressed as percentage increase in time to contracture from control. Time to contracture was measured as the time during ischemia for end diastolic pressure to increase by 5 mm Hg.
EC₅₀ for percentage change in time to contracture for cromakalim and zofenopril given alone or in the concentration ratios indicated were calculated.

[2] = tested on: isolated rat hearts; experiment: Global ischemia and reperfusion in isolated perfused (Langendorff) rat hearts: EDP, LDH release, double product
Protocol: as §1, with “The hearts were then excised and quickly moved to a Langendorff apparatus where they were perfused with Krebs-Henseleit bicarbonate buffer (112 mM sodium chloride, 25 mM sodium bicarbonate, 5 mM potassium chloride, 1.2 mM magnesium sulfate, 1 mM potassium diphosphate, 1.25 mM calcium chloride, 11.5 mM glucose and 2mM pyruvate bubbled with 95% oxygen - 5% carbon dioxide) at a constant perfusion pressure (75 mm Hg).” left out, “buffer. All hearts were retreated with vehicle or drug for 10 minutes before the onset of ischemia. All drugs were given only before ischemia. The hearts were subjected to 25 minutes of global ischemia and 30 minutes of reperfusion. At the end of the experiment, EDP and LDH release were measured and used as an index of severity of ischemia.” for “buffer.”

[3] = tested on: isolated rat hearts; experiment: as above; settings: 100 or 300 µM N-acetylcysteine; 30 minutes into reperfusion following 35 minutes of global ischemia (Fig. 3a, 3b)
[4] = given alone, time during ischemia for EDP to increase by 5 mm Hg
[5] = blocker (1 µM glyburide or 100 µM sodium 5-hydroxydecanoate) given with zofenopril prodrug (Fig. 1a)
[6] = blocker (1 µM glyburide or 100 µM sodium 5-hydroxydecanoate) given with zofenopril prodrug (Fig. 1b)

## CC1(C)Oc2ccc(C#N)cc2C(N2CCCC2=O)C1O (racemic) [Cromakalim, (±)-6-cyano-3,4-dihydro-2,2-dimethyl-trans-4-(2-oxo-1-pyrrolidyl)-2H-benzo[6]-pyran-3-ol]
[1]; concentration ratio 3:1 cromakalim to zofenopril, cromakalim component
  EC50: 5.15 µM
[1]; concentration ratio 12:1 cromakalim to zofenopril, cromakalim component
  EC50: 5.96 µM
[1]; concentration ratio 30:1 cromakalim to zofenopril, cromakalim component
  EC50: 9.3 µM
[1]; [4]
  EC50: 39.7 µM

## C[C@H](CS)C(=O)N1C[C@@H](Sc2ccccc2)C[C@H]1C(=O)O [free-SH form of zofenopril]
[2]; 400 µM zofenopril-SH, 30 minutes into reperfusion following 25 minutes of global ischemia (Fig. 2a, 2b)
  cardioprotective effect (EDP and cumulative LDH release): cardioprotective effect

## CCCCCC(O)CCCC(=O)[O-].[Na+] (stereo not shown) [sodium-5-hydroxy-decanoate, sodium 5-hydroxydecanoate]
[2]; [5]
  end diastolic pressure (EDP): increase
[2]; [6]
  cumulative LDH release: increase

## C[C@H](CSC(=O)c1ccccc1)C(=O)N1C[C@@H](Sc2ccccc2)C[C@H]1C(=O)O [Zofenopril]
[2]; 100 µM zofenopril, 30 minutes into reperfusion following 25 minutes of global ischemia (Fig. 1a)
  end diastolic pressure (EDP): significantly reduced
[2]; 100 µM zofenopril, 30 minutes into reperfusion following 25 minutes of global ischemia (Fig. 1b)
  cumulative LDH release: significantly reduced
[1]; concentration ratio 3:1 cromakalim to zofenopril, zofenopril component
  EC50: 0.128 µM
[1]; concentration ratio 12:1 cromakalim to zofenopril, zofenopril component
  EC50: 0.48 µM
[1]; concentration ratio 30:1 cromakalim to zofenopril, zofenopril component
  EC50: 0.29 µM
[1]; [4]
  EC50: 75 µM

## CC(C)(S)[C@@H](N)C(=O)O [Penicillamine]
[2]; penicillamine (Fig. 4a, 4b)
  protection of cardiac tissue: protects cardiac tissue
[2]; penicillamine (Fig. 4b)
  LDH release: significantly reduced
[2]; penicillamine, HR x LVDP divided by 1000 (Fig. 4a)
  reperfusion double product: significantly improved

## COc1ccc(Cl)cc1C(=O)NCCc1ccc(S(=O)(=O)NC(=O)NC2CCCCC2)cc1 [Glyburide]
[2]; 1 µM glyburide with 400 µM zofenopril-SH (Fig. 2a, 2b)
  reversal of the cardioprotective effect of zofenopril-SH: reverses the cardioprotective effect
[2]; 1 µM glyburide with N-acetylcysteine (Fig. 3a, 3b)
  reversal of the protective effect of N-acetylcysteine: reversed
[2]; [5]
  end diastolic pressure (EDP): increase
[2]; [6]
  cumulative LDH release: increase
[2]; glyburide with penicillamine (Fig. 4a, 4b)
  reversal of the effects of penicillamine on double product and LDH release: partially reversed

## CC(=O)N[C@@H](CS)C(=O)O [N-acetyl-cysteine, N-acetylcysteine]
[3]
  protection of ischemic cardiac tissue (EDP and cumulative LDH release): protected ischemic cardiac tissue
